In the supplement of paper PMC8960247:
Where a name gives a salt, the structure may show the parent alone. ± gives the standard error.

Experiments:
621-103 (TSC2-rescued) = assay: relative viability vs DMSO; higher = less cytotoxic; settings: serum: 10% FBS, 72 h
621-102 (TSC2-deficient) = assay: as above; settings: serum: 10% FBS, 72 h
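Further: immortalized renal angiomyolipoma cells stably carrying empty vector or TSC2, dosed in 384-well plates in DMEM, viability normalized to vehicle-treated wells within each plate.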

SMILES	relative viability (621-103 (TSC2-rescued); 0.0001 µM)	relative viability (621-103 (TSC2-rescued); 0.001 µM)	relative viability (621-103 (TSC2-rescued); 0.01 µM)	relative viability (621-103 (TSC2-rescued); 0.1 µM)	relative viability (621-103 (TSC2-rescued); 1 µM)	relative viability (621-103 (TSC2-rescued); 10 µM)	relative viability (621-102 (TSC2-deficient); 0.0001 µM)	relative viability (621-102 (TSC2-deficient); 0.001 µM)	relative viability (621-102 (TSC2-deficient); 0.01 µM)	relative viability (621-102 (TSC2-deficient); 0.1 µM)	relative viability (621-102 (TSC2-deficient); 1 µM)	relative viability (621-102 (TSC2-deficient); 10 µM)
CC(=O)Nc1ccccc1 [Acetanilide]	104 ± 1.9%	102 ± 4.6%	106.2 ± 0.32%	101 ± 4.2%	103 ± 2.6%	91.3 ± 1.3%	87.9 ± 1.9%	111 ± 0.29%	109 ± 2.3%	92 ± 3%	113 ± 3.1%	104 ± 1.7%
Nc1[nH]cnc2ncnc1-2 [Adenine HCl]	95.5 ± 2.2%	96.77 ± 0.35%	92.9 ± 4.8%	102.9 ± 0.83%	96.7 ± 2.2%	120 ± 2.1%	93.9 ± 2%	103 ± 0.93%	97.03 ± 0.37%	97.386 ± 0.086%	96.5 ± 6.5%	110.8 ± 1.1%
Nc1[nH]cnc2ncnc1-2 [Adenine]	101 ± 3.9%	98.5 ± 4.1%	101 ± 1.6%	97.3 ± 1.1%	104.9 ± 0.9%	117 ± 1.5%	98 ± 4%	96.5 ± 2.6%	100 ± 3%	97.9 ± 2.6%	101 ± 2.1%	112.7 ± 0.18%
COc1cccc2c1C(=O)c1c(O)c3c(c(O)c1C2=O)C[C@@](O)(C(=O)CO)C[C@@H]3O[C@H]1C[C@H](N)[C@H](O)[C@H](C)O1 [Adriamycin]	102.4 ± 0.79%	103 ± 1.9%	87.9 ± 3.1%	60.3 ± 1.4%	13.01 ± 0.075%	12 ± 0.24%	102 ± 2%	93.5 ± 5.5%	71.1 ± 1.7%	65.1 ± 2.7%	17.4 ± 2.1%	5.59 ± 0.56%
NCCCC(O)(P(=O)(O)O)P(=O)(O)O [Alendronate Sodium]	98.7 ± 3.1%	102 ± 1.5%	101 ± 4.5%	105.54 ± 0.079%	104 ± 3.5%	105 ± 2.9%	99.4 ± 1.2%	103 ± 1.3%	103 ± 2.7%	99.1 ± 5.1%	99 ± 3.1%	104.6 ± 0.43%
COCCCOc1cc(C[C@@H](C[C@H](N)[C@@H](O)C[C@H](C(=O)NCC(C)(C)C(N)=O)C(C)C)C(C)C)ccc1OC [Aliskiren hemifumarate]	105 ± 2.6%	100 ± 1.1%	104 ± 6.3%	94.7 ± 4.8%	96.59 ± 0.53%	98.8 ± 2.7%	110 ± 2.6%	111 ± 2.7%	106 ± 5.1%	112 ± 1.9%	98.8 ± 5.5%	95.9 ± 5.5%
O=C1c2ccccc2C(=O)c2c1ccc(O)c2O [Alizarin]	101 ± 1.6%	102 ± 5%	101.4 ± 0.27%	99.9 ± 3.2%	95.2 ± 4.5%	97.3 ± 1.1%	108 ± 2.3%	110 ± 0.84%	108 ± 4.6%	105 ± 1.5%	107 ± 2.9%	83 ± 3%
Oc1ncnc2[nH]ncc12 [Allopurinol]	103 ± 3.1%	98.4 ± 1.6%	101 ± 3.5%	98.7 ± 3.6%	98.2 ± 1.6%	100 ± 1.9%	96.2 ± 0.32%	105 ± 2.6%	102 ± 1.7%	91.9 ± 0.92%	99.48 ± 0.58%	101.9 ± 0.86%
NC12CC3CC(CC(C3)C1)C2 [Amantadine HCl (Symmetrel)]	92.2 ± 5.4%	98.7 ± 2.9%	106 ± 2.3%	111 ± 3.6%	108 ± 1.8%	96.89 ± 0.4%	97.2 ± 2.8%	96.9 ± 4.5%	94.9 ± 3.8%	98.5 ± 3.3%	100.9 ± 0.5%	98.09 ± 0.17%
CC(NC(C)(C)C)C(=O)c1cccc(Cl)c1 (stereo not given) [Amfebutamone]	103.2 ± 0.3%	105 ± 2.2%	98.8 ± 1.9%	101 ± 2.8%	102 ± 2.8%	102 ± 1.2%	110 ± 2.9%	103 ± 1.4%	104.4 ± 0.4%	112 ± 2.4%	103 ± 2.4%	103 ± 3.5%
